US20030040515A1, “Regulation of platelet adhesion and aggregation” (priority 2002, published 2003)
Read-outs that look alike come from different tables or passages of the source. Blank lines part the entries; values can stand above or below the compound they belong to. Non-standard residues stand in square brackets, D forms with d. Residues, ends and D or L forms follow the SMILES beside them. *: point of attachment. Sta = CC(C)C[C@H](N)[C@@H](O)CC(=O)O; Isovaleryl = CC(C)CC(=O)*

Experiments:
[1] = test system: vWF depolymerizing activity of BAECcm; experiment: Inhibitor profile of the vWF depolymerizing activity of BAEC conditioned medium; format: biochemical
vWF = biological target: T1, vWF (Homo sapiens, UniProt P04275); experiment: Reduction in average multimer size of vWF in TTP plasma (agarose gel, collagen binding/vWF antigen); format: biochemical; conditions: chelation of Ca2+
T1 construct: from tissue; host or cells: plasma of a TTP patient (vWF); human platelet concentrates (TSP-1)
Procedure: TTP plasma was incubated with 20 mM Hepes, 0.14M NaCl, 1 mM CaCl2, 1 mM MgCl2, pH 7.4 buffer, conditioned media of HMEC-1 cells or the Hepes buffer containing TSP-1 for 1 or 24 hours at 37° C. Aliquots of the reactions were diluted 10-fold in the Hepes buffer and assayed for collagen binding affinity and vWF antigen as described by Favaloro et al. (1991). On some occasions, aliquots of the reactions were resolved on 1% agarose gel electrophoresis (Ruggeri and Zimmerman, 1980), transferred to PVDF membrane (DuPont NEN, Boston, Mass.), blotted with 2 μg per ml of horse radish peroxidase conjugated anti-vWF polyclonal antibodies (DAKO Corporation, Carpinteria, Calif.) and visualized using chemiluminescence (DuPont NEN, Boston, Mass.).
TSP-1 is a major component of platelet α-granules which is secreted upon platelet activation and aggregation. TSP-1 was purified to homogeneity from pooled outdated human platelet concentrates (Murphy-Ullrich and Mosher. 1985; Hogg et al., 1997) and tested for vWF reductase activity. Buffers containing 0.1 mM CaCl2 were used throughout the chromatographic purification of TSP1. […] In particular, the very large multimers were lost (see bracket in FIG. 3A). […] TSP-1-mediated reduction in vWF multimer size was concentration- and time-dependent (FIG. 3B). Three different preparations of platelet TSP-1 had the same vWF reducing activity (not shown). It is noteworthy that the molar ratio of TSP-1 to vWF influenced the extent of reduction in vWF multimer size (FIG. 3B). The vWF reductase activity in endothelial cell conditioned medium is inhibited by EDTA. In accordance with this observation, chelation of Ca^2+ with EDTA ablated the vWF reductase activity of TSP-1 (not shown).

purified vWF [2] = biological target: T2, purified vWF (Homo sapiens, UniProt P04275); experiment: MPB labelling assay for reduction of vWF disulfide bond(s) / formation of new thiols in vWF; format: biochemical; parameters: Purified vWF from human plasma was obtained from the Baker Medical Research Institute; tissue Baker Medical Research Institute, Melbourne (vWF); host or cells: human plasma (vWF); human platelet concentrates (TSP-1); conditions: chelation of Ca2+ in the reactions
Procedure: The biotin-linked maleimide, MPB, was used to measure reduction of vWF disulfide bond(s) in BAECcm. […] Free thiol(s) formed in vWF by reduction of disulfide bonds bond(s) were labelled with MPB (100 μM) and the unreacted MPB was quenched with GSH (200 μM). N-ethylmaleimide reacts rapidly with free thiols with a second order rate constant of ˜10^4 M^−1s^−1 at pH 8 (Torchinski and Dixon, 1974). Therefore, the half life for reaction of free thiols in vWF with the maleimide moiety of MPB was anticipated to be in the order of a few seconds. Aliquots of the reactions containing MPB-labelled vWF were incubated in ELISA plate wells coated with anti-vWF polyclonal antibodies. The adsorbed vWF was incubated with streptavidin peroxidase to measure the incorporated MPB. The control for vWF labelling was incubation and labelling of BAECcm alone, prior to addition of vWF. This reaction represented the contribution to the assay of MPB labelling of endogenous vWF and/or other vWF binding proteins in the BAECcm. […]
Reduction of disulfide bonds in vWF was anticipated to result in a net increase in free thiols in the vWF population. […] The MPB-labeled vWF was incubated in ELISA plate wells coated with anti-human vWF polyclonal antibodies and the biotin label was detected using StreptABComplex/HRP (DAKO Corporation, Carpinteria, Calif.).

purified vWF [3] = biological target: T2, purified vWF; experiment: Effect of purified reductants on affinity of purified vWF for collagen; format: biochemical; conditions: 24 hours at 37° C.; for effect on vWF collagen affinity: PDI at 10 nM
Procedure: Confluent HUVEC's were washed with M199 without FCS and incubated in M199 for up to 8.5 hours. The HUVECS were stimulated to release vWF by adding […] human α-thrombin after 0.5 hours. The thrombin was quenched after 2 hours incubation by adding 5 mM D-Phe-Pro-Arg-chloromethyl ketone. Samples of the conditioned medium were collected at discrete time intervals and analyzed for vWF by 1% agarose gel electrophoresis and Western blotting or vWF antigen levels and collagen binding affinity (not shown). vWF antigen levels were determined using ELISA by capturing the vWF with adsorbed anti-vWF polyclonal antibodies and detecting using peroxidase conjugated anti-vWF polyclonal antibodies (Favoloro et al., 1991). Collagen binding affinity was assessed by incubating the vWF in plastic wells coated with type I/III collagen for 1 hour and measuring the bound vWF using peroxidase conjugated anti-vWF antibodies (Favoloro et al., 1991). Large vWF multimers bind to collagen with up to ˜100-fold higher affinity than smaller multimers, therefore affinity for collagen is a useful indicator of average vWF multimer size.
The effect of incubation of purified vWF with GSH, PDI, or GSH and PDI, for 24 hours at 37° C. on the affinity of vWF for collagen was analysed. […] The half-maximal effect of GSH on vWF collagen affinity was ˜20 μM. […] The half-maximal effect of GSH in the presence on PDI on vWF collagen affinity was similar to that of GSH alone, ˜20 μM.

plasma vWF = plasma vWF (Homo sapiens, UniProt P04275); conditions: GSH 20 μM added to BAECcm
Procedure: To test whether exogenous GSH could augment vWF depolymerization by BAECcm, plasma vWF was incubated with BAECcm, or BAECcm and GSH (20 μM), and multimer size measured by either agarose gel electrophoresis or collagen binding.

purified vWF [4] = biological target: T2, purified vWF; experiment: Effect of purified reductants or thiol reagents on the average multimer size of purified vWF (agarose gel electrophoresis); format: biochemical; parameters: Purified vWF from human plasma was obtained from the Baker Medical Research Institute; tissue Baker Medical Research Institute, Melbourne; host or cells: human plasma; conditions: for effect on average multimer size of purified vWF: GSH 20 μM, PDI 10 nM, thioredoxin 10 nM, 24 hours at 37° C.
[5] = measured by agarose gel electrophoresis or collagen binding, BAECcm treated with agent

Compound: NCCc1ccc(S(=O)(=O)F)cc1 [4-(2-aminoethyl)benzenesulfonylfluoride]
effect on vWF depolymerizing activity of BAECcm [1, 5]: not inhibited

Compound: CC(C)C[C@H](NC(=O)[C@H]1O[C@@H]1C(=O)O)C(=O)NCCCCN=C(N)N [E-64]
effect on vWF depolymerizing activity of BAECcm [1, 5]: inactivated

Compound: O=C(O)CN(CCN(CC(=O)O)CC(=O)O)CC(=O)O [EDTA]
effect on vWF reductase activity of TSP-1 (vWF): ablated
effect on TSP-1-catalysed formation of free thiols in vWF (purified vWF [2]): ablated
effect on vWF depolymerizing activity of BAECcm [1]: ablated activity

effect on vWF collagen affinity (purified vWF [3]): reduced the collagen affinity of vWF
EC50 (purified vWF [3]; GSH alone, read-out: half-maximal effect on vWF collagen affinity): ~20 µM
EC50 (purified vWF [3]; GSH in the presence of PDI, read-out: half-maximal effect on vWF collagen affinity in the presence of PDI): ~20 µM
vWF depolymerization over that by BAECcm alone (plasma vWF; agarose gel electrophoresis): small increase
collagen affinity of vWF (plasma vWF; p<0.05): significant reduction
Compound: N[C@@H](CCC(=O)N[C@@H](CS)C(=O)NCC(=O)O)C(=O)O [GSH, reduced glutathione]
effect on average multimer size of purified vWF (purified vWF [4]): reduction of the average multimer size of vWF

Compound: NC(=O)CI [IAM, iodoacetamide]
effect on average multimer size of vWF (purified vWF [4]; incubation of vWF with IAM or NEM alone): did not have any discernible effect
effect on vWF depolymerizing activity of BAECcm [1, 5]: inactivated

Compound: CC(C)C[C@H](NC(=O)[C@@H](NC(=O)N[C@@H](Cc1ccccc1)C(=O)O)[C@@H]1CCN=C(N)N1)C(=O)N[C@H](C=O)Cc1ccccc1 [chymostatin]
effect on vWF depolymerizing activity of BAECcm [1, 5]: not inhibited

Compound: CC(=O)N[C@@H](CC(C)C)C(=O)N[C@@H](CC(C)C)C(=O)N[C@H](C=O)CCCNC(=N)N [leupeptin]
effect on vWF depolymerizing activity of BAECcm [1, 5]: not inhibited

Compound: CC(C)CC(=O)N[C@H](C(=O)N[C@H](C(=O)N[C@@H](CC(C)C)[C@@H](O)CC(=O)N[C@@H](C)C(=O)N[C@@H](CC(C)C)[C@@H](O)CC(=O)O)C(C)C)C(C)C [pepstatin] (Isovaleryl-VV[Sta]A[Sta]-OH)
effect on vWF depolymerizing activity of BAECcm [1, 5]: not inhibited

Compound: CC(C)C[C@H](NP(=O)(O)O[C@@H]1O[C@@H](C)[C@H](O)[C@@H](O)[C@H]1O)C(=O)N[C@@H](Cc1c[nH]c2ccccc12)C(=O)O [phosphoramidon]
effect on vWF depolymerizing activity of BAECcm [1, 5]: not inhibited

Compound: PDI: purified reductant
effect on vWF collagen affinity (purified vWF [3]): reduced vWF collagen affinity to the same extent as 20 μM GSH
effect on average multimer size of purified vWF (purified vWF [4]): reduction of the average multimer size of vWF

Compound: aprotinin
effect on vWF depolymerizing activity of BAECcm [1, 5]: not inhibited

Compound: thioredoxin
effect on average multimer size of purified vWF (purified vWF [4]): reduction of the average multimer size of vWF
